In patent US6011046A, “Quinone compound, its production and use as antioxidant” (Takeda Chemical Industries, Ltd., priority 1995, dated 2000):

Columns and labels:
[1] = tested on: Na+ channel site 2; parameters: species or system SD male rats; conditions: [3H]-batrachotoxin 2 nM, rat forebrain homogenate, 37° C., 45 minutes; read-out: IC50 (Na+ channel binding, site 2)
[2] = tested on: lipoperoxide formed in the brain homogenate; experiment: Lipoperoxide formation inhibitory effect (thiobarbituric acid (TBA) method, brain homogenate); assay type: biochemical, Wistar male rats; conditions: rat cerebral cortex homogenate supernatant, 37° C., 30 minutes, pH 7.4, malondialdehyde at 532 nm
Protocol: The lipoperoxide formed in the brain homogenate was quantified by the thiobarbituric acid (TBA) method of Stocks et al. (Cli. Sci. Mol. Med. 47, 215 (1974)). The cerebral cortex was removed from Wistar male rats (10 weeks old), and homogenized in ice-cooled phosphate physiological saline buffer (40 mM KH2 PO4 /K2 HPO4, 0.142M NaCl, pH 7.4). The homogenate was centrifuged at 1,000×g for 10 minutes, and the supernatant of the homogenate was used for the experiment. A solution of the test compound in ethanol (10 μl) was added to the supernatant (1 ml), and the mixture was incubated at 37° C. for 30 minutes. The reaction was stopped by adding 35% perchloric acid solution (200 μl). The reaction mixture was centrifuged at 13,000× g for 10 minutes, and 1% thiobarbituric acid solution (250 μl) was added to the supernatant (1.0 ml). The mixture was heated at 100° C. for 15 minutes, and then the amount of malondialdehyde formed by decomposition of the lipoperoxide was determined by colorimetry (532 nm).

[3] = tested on: Na+ channel site 1; assay type: binding, SD male rats; conditions: [3H]-saxitoxin 2 nM, rat forebrain homogenate, 37° C., 30 minutes

Molecule | IC50 [1] [µM] | IC50 [2] [µM] | effect on site 1 of Na channels [3]
CC1=C(C)C(=O)C(C[C@](C)(O)CN2CCC(c3ccccc3)CC2)=C(C)C1=O [compound (A), (S)-2-[2-Hydroxy-2-methyl-3-(4-phenylpiperidin-1-yl)propyl]-3,5,6-trimethyl-1,4-benzoquinone] | 0.9 | 3.5 ± 0.56 | no effect
vitamin E [reference compound] | – | 203 ± 43 | –
